Assays:
[1] = clinical pathology (serum clinical chemistry) in mice; assay type: in vivo; conditions: CD-1 mice, 20 mg/kg intravenously daily for 9 days, sera day 10
Description: 20-day-old CD-1 mice were divided into a vehicle control group (5 mice) and a treatment group (5 mice). Samples of glycopeptide antibiotics were administered at 20 mg/kg intravenously daily for 9 days.

[2] = system: Streptococcus pneumoniae (GC 1894); test: acute lethal infection in mice; assay type: in vivo; conditions: female CD-1 mice, intraperitoneal challenge, intravenous 30 min. after infection, 7 day survival
In short: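 ED50 from 7 day survival ratios pooled over 3 separate tests. Female CD-1 mice, 20+/−2 gm, ip bacterial challenge (trypticase soy broth or hog gastric mucin) lethal to untreated controls in 24-48 hr; iv dosing 30 min after infection in saline or 5% dextrose, n=5/dose.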

[3] = anatomic pathology (histopathology of heart and kidney) in mice; assay type: in vivo; conditions: CD-1 mice, 20 mg/kg intravenously daily for 9 days, necropsy day 10, microscopic histopathology
Description: Samples of tissues from necropsied mice were formalin-fixed, paraffin-embedded, sectioned, stained with hematoxylin and eosin, and examined microscopically. Histopathologic findings were recorded. These findings were subjectively graded on a scale corresponding to slight, mild, moderate, marked and severe as compared to untreated controls.

Staphylococcus sp. = test: in vitro antibacterial evaluation, MIC by broth dilution; assay type: cell-based; conditions: broth dilution, 18 hours at 35° C.
In short: (§1)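 Broth dilution per NCCLS standard M7-A2 in Muller-Hinton II […], with an inoculum of 5×10^5 CFU/mL and antibiotic spanning 64-0.06 μg/mL. The MIC is the lowest concentration that inhibits growth of the organism.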

Streptococcus sp. = test: as above; assay type: cell-based; conditions: broth dilution, 18 hours at 35° C.; for MIC Streptococcus pneumoniae (ATCC 6301): strain ATCC 6301; for MIC Streptococcus pneumoniae (GC 1894): strain GC 1894; for MIC Streptococcus pneumoniae (GC 4565): strain GC 4565
In short: as §1

Enterococcus sp. = test: as above; assay type: cell-based; conditions: broth dilution, 18 hours at 35° C.; for MIC Enterococcus faecalis (ATCC 29212): strain ATCC 29212; for MIC Enterococcus faecalis (GC 2242): strain GC 2242; for MIC Enterococcus faecium (GC 2243): strain GC 2243; for MIC Enterococcus faecalis (GC 2691): strain GC 2691; for MIC Enterococcus faecalis (GC 3059): strain GC 3059; for MIC Enterococcus faecalis (GC 4552): strain GC 4552; for MIC Enterococcus faecalis (GC 4553): strain GC 4553; for MIC Enterococcus faecalis (GC 4554): strain GC 4554; for MIC Enterococcus faecium (GC 4556): strain GC 4556; for MIC Enterococcus faecium (GC 4557): strain GC 4557; for MIC Enterococcus avium (GC 4558): strain GC 4558; for MIC Enterococcus faecalis (GC 6189): strain GC 6189
In short: as §1

Escherichia coli = test: as above; assay type: cell-based; conditions: 18 hours at 35° C.; for MIC Escherichia coli (GC 4560): strain GC 4560
In short: as §1

CC(c1ccccc1)C1NC(=O)CNC(=O)C(CO)NC(=O)C(C(O)C2CNC(=N)N2C2OC(CO)C(O)C(O)C2O)NC(=O)C(C(O)C2CNC(=N)N2)NC(=O)C(Cc2ccc(OC3OC(CO)C(OC4OC5COC6(OC5C(O)C4O)C4CC5CC(C4)CC6C5)C(O)C3O)cc2)NC1=O (stereo not drawn) [Example 105, Cyclo[glycyl-β-methylphenylalanyl-O-[4-O-[4,6-O-(2-adamantylidene)hexopyranosyl]hexopyranosyl]tyrosyl-3-(2-iminoimidazolidin-4-yl)seryl-3-(3-hexopyranosyl-2-iminoimidazolidin-4-yl)serylseryl]]
0.5 to 1 µg/mL: MIC Coagulase Negative Staphylococcus (GC 4547) (Staphylococcus sp.) | MIC Coagulase Negative Staphylococcus (GC 4549) (Staphylococcus sp.) | MIC Coagulase Negative Staphylococcus (GC 6257) (Staphylococcus sp.) | MIC Staphylococcus aureus (GC 3051) (Staphylococcus sp.) | MIC Staphylococcus aureus (GC 4542) (Staphylococcus sp.) | MIC Coagulase Negative Staphylococcus (GC 4547) (Staphylococcus sp.; strain GC 4547) | MIC Coagulase Negative Staphylococcus (GC 4549) (Staphylococcus sp.; strain GC 4549) | MIC Coagulase Negative Staphylococcus (GC 6257) (Staphylococcus sp.; strain GC 6257)
32 µg/mL: MIC Escherichia coli (GC 4559) (Escherichia coli; strain GC 4559)
+35%: Clinical Chemistry (Day 10) % of Control, BUN [1]
0.5 to 2 µg/mL: MIC Enterococcus faecalis (GC 2242) (Enterococcus sp.) | MIC Enterococcus faecium (GC 4556) (Enterococcus sp.) | MIC Escherichia coli (GC 4560) (Escherichia coli)
+++: Anatomical Pathology (Day 10), Heart [3] | Anatomical Pathology (Day 10), Kidney [3]
<0.5 to 1 µg/mL: MIC Coagulase Negative Staphylococcus (GC 4548) (Staphylococcus sp.) | MIC Coagulase Negative Staphylococcus (GC 4551) (Staphylococcus sp.) | MIC Staphylococcus aureus (ATCC 29213) (Staphylococcus sp.) | MIC Staphylococcus aureus (GC 4541) (Staphylococcus sp.) | MIC Staphylococcus aureus (GC 4545) (Staphylococcus sp.) | MIC Staphylococcus haemolyticus (GC 4546) (Staphylococcus sp.) | MIC Staphylococcus haemolyticus (GC 4546) (Staphylococcus sp.; strain GC 4546) | MIC Coagulase Negative Staphylococcus (GC 4548) (Staphylococcus sp.; strain GC 4548) | MIC Coagulase Negative Staphylococcus (GC 4551) (Staphylococcus sp.; strain GC 4551)
0.04 mg/kg: median effective dose (ED50), Streptococcus pneumoniae (GC 1894) [2]
1 to 2 µg/mL: MIC Staphylococcus aureus (GC 3053) (Staphylococcus sp.) | MIC Enterococcus faecalis (ATCC 29212) (Enterococcus sp.) | MIC Enterococcus faecium (GC 2243) (Enterococcus sp.) | MIC Enterococcus faecalis (GC 2691) (Enterococcus sp.) | MIC Enterococcus faecalis (GC 3059) (Enterococcus sp.) | MIC Enterococcus faecalis (GC 4552) (Enterococcus sp.) | MIC Enterococcus faecalis (GC 4553) (Enterococcus sp.) | MIC Enterococcus faecalis (GC 4554) (Enterococcus sp.) | MIC Enterococcus faecium (GC 4557) (Enterococcus sp.) | MIC Enterococcus avium (GC 4558) (Enterococcus sp.) | MIC Enterococcus faecalis (GC 6189) (Enterococcus sp.)
<0.06 µg/mL: MIC Streptococcus pneumoniae (ATCC 6301) (Streptococcus sp.) | MIC Streptococcus pneumoniae (GC 1894) (Streptococcus sp.) | MIC Streptococcus pneumoniae (GC 4565) (Streptococcus sp.)
0.25 to 2 µg/mL: MIC Staphylococcus aureus (GC 4544) (Staphylococcus sp.)
+480%: Clinical Chemistry (Day 10) % of Control, ALT [1]
0.25 to 1 µg/mL: MIC Staphylococcus aureus (GC 1131) (Staphylococcus sp.) | MIC Staphylococcus aureus-SMITH (GC 4543) (Staphylococcus sp.)

N=C1NCC(C(O)C2NC(=O)C(Cc3ccc(OC4OC(CO)C(OC5OC6COC7(OC6C(O)C5O)C5CC6CC(C5)CC7C6)C(O)C4O)cc3)NC(=O)C(CC3CCCCC3)NC(=O)CNC(=O)C(CO)NC(=O)C(C(O)C3CNC(=N)N3C3OC(CO)C(O)C(O)C3O)NC2=O)N1 (stereo not drawn) [Example 106, Cyclo[3-cyclohexylalanyl-O-[4-O-[4,6-O-(2-adamantylidene)hexopyranosyl]hexopyranosyl]-tyrosyl-3-(2-iminoimidazolidin-4-yl)seryl-3-(3-hexopyranosyl-2-iminoimidazolidin-4-yl)-serylserylglycyl]]
0.25 to 2 µg/mL: MIC Staphylococcus aureus (GC 4544) (Staphylococcus sp.)
0.5 to 2 µg/mL: MIC Coagulase Negative Staphylococcus (GC 4547) (Staphylococcus sp.) | MIC Staphylococcus aureus (ATCC 29213) (Staphylococcus sp.) | MIC Staphylococcus aureus (GC 1131) (Staphylococcus sp.) | MIC Staphylococcus aureus (GC 3051) (Staphylococcus sp.) | MIC Staphylococcus aureus (GC 3053) (Staphylococcus sp.) | MIC Staphylococcus aureus (GC 4541) (Staphylococcus sp.) | MIC Staphylococcus aureus (GC 4545) (Staphylococcus sp.) | MIC Coagulase Negative Staphylococcus (GC 4547) (Staphylococcus sp.; strain GC 4547) | MIC Enterococcus faecalis (ATCC 29212) (Enterococcus sp.) | MIC Enterococcus faecalis (GC 2242) (Enterococcus sp.) | MIC Enterococcus faecium (GC 2243) (Enterococcus sp.) | MIC Enterococcus faecium (GC 4556) (Enterococcus sp.) | MIC Enterococcus faecium (GC 4557) (Enterococcus sp.) | MIC Escherichia coli (GC 4560) (Escherichia coli)
0.25 µg/mL: MIC Coagulase Negative Staphylococcus (GC 6257) (Staphylococcus sp.) | MIC Coagulase Negative Staphylococcus (GC 6257) (Staphylococcus sp.; strain GC 6257)
0: Anatomical Pathology (Day 10), Heart [3]
<0.12 to 1 µg/mL: MIC Coagulase Negative Staphylococcus (GC 4549) (Staphylococcus sp.)
0.25 to 1 µg/mL: MIC Coagulase Negative Staphylococcus (GC 4548) (Staphylococcus sp.) | MIC Coagulase Negative Staphylococcus (GC 4551) (Staphylococcus sp.) | MIC Staphylococcus aureus (GC 4542) (Staphylococcus sp.) | MIC Staphylococcus aureus-SMITH (GC 4543) (Staphylococcus sp.)
0.5 to 1 µg/mL: MIC Staphylococcus haemolyticus (GC 4546) (Staphylococcus sp.) | MIC Staphylococcus haemolyticus (GC 4546) (Staphylococcus sp.; strain GC 4546)
<0.03 µg/mL: MIC Streptococcus pneumoniae (ATCC 6301) (Streptococcus sp.) | MIC Streptococcus pneumoniae (GC 1894) (Streptococcus sp.) | MIC Streptococcus pyogenes (GC 4563) (Streptococcus sp.; strain GC 4563) | MIC Streptococcus agalactiae (GC 4564) (Streptococcus sp.; strain GC 4564) | MIC Streptococcus pneumoniae (GC 4565) (Streptococcus sp.)
0.07 mg/kg: median effective dose (ED50), Streptococcus pneumoniae (GC 1894) [2]
1 to 2 µg/mL: MIC Enterococcus faecalis (GC 2691) (Enterococcus sp.) | MIC Enterococcus faecalis (GC 3059) (Enterococcus sp.) | MIC Enterococcus faecalis (GC 4552) (Enterococcus sp.) | MIC Enterococcus faecalis (GC 4553) (Enterococcus sp.) | MIC Enterococcus faecalis (GC 4554) (Enterococcus sp.) | MIC Enterococcus avium (GC 4558) (Enterococcus sp.) | MIC Enterococcus faecalis (GC 6189) (Enterococcus sp.)

From patent US6914045B2, “Glycopeptide antibiotics” (Wyeth Holdings Corporation, priority 2001, dated 2005)
